# Assay results from patent US20230312587A1, “PTERIDINONE COMPOUNDS AND USES THEREOF” (Vertex Pharmaceutical Incorporated, priority 2018, published 2023).
# Read-outs that look alike come from different tables or passages of the source.
# Columns and labels:
# Colo-205 cells = test: Calcium flux assay (FLIPR Calcium 5); assay type: cell-based; conditions: FLIPR Calcium 5, measured over 36 minutes
# Protocol: Compounds described herein induced ER stress by causing intracellular calcium flux. Calcium flux was measured in Colo-205 cells using the FLTPR® Calcium 5 Assay Kit according to manufacter's protocol (Molecular Devices, Cat. #R8186) on a FLIPR3 system (Molecular Devices). Calcium flux is measured over 36 minutes. The Colo-205 calcium flux assay data are summarized in Table 47: A<0.6 μM; 0.6 μM≤B<2.0 μM; 2.0 μM≤C<10.0 μM; D≥10.0 μM.
# [1] = system: Hek293 WFS1 over-expressor; test: In vitro cell viability (CellTiter-Glo), Hek293 WFS1 over-expressor; assay type: cell-based; conditions: read-out: Hek293 WFS1 viability
# Protocol: WFS1 cDNA is amplified from clone RC202901 (Origene Technologies) with primers 5′-TCCGCGGCCCCAAGCTTATCGCCATGGACTCCAACACTGC-3′ (SEQ ID NO: 1), 5′-GATGGGCCCAGATCTCGAGTCAGGCCGCCGACAGGAATG-3′ (SEQ ID NO: 2) and cloned into a retroviral mammalian expression vector pCLPCX using HD Infusion (CLONTECH) at Hind3-Xhol sites using standard procedures. The resulting clone is identified as pCLPCX_WFS1.
# HEK293 (ATCC, catalog #CRL-1573) cells are plated in 10 cm dishes (Corning, product #430167) into 10 mL of complete DMEM cell culture media [DMEM (Life Technologies, product #11960-051) media supplemented with 10% FBS (Hyclone, catalog #SH30071.03), antimycotic/antibiotic (Life Technologies, product #15240-062), and Glutamax (Life Technologies, product #35050-061)] at 3×10^6 cells per dish. Cells are allowed to attach and grow overnight at 37° C. in humidified 5% CO2. Cells are co-transfected with pVSV-G, pCMV-Gag/Pol and pCLPCX_WFS1 using Fugene 6 (Promega, catalog #E2691) according to manufacturer's protocol. Separately, cells are co-transfected with pVSV-G, pCMV-Gag/Pol and pCLPCX to produce control retrovirus. Cell culture media containing retrovirus (viral supernatant) is collected at 48 and 72 hours following transfection, filtered through a 0.4 uM filter, and stored at −80° C.
# HEK293 cells are plated in 6 well plates (Corning, product #3516) in 2 mL of complete DMEM cell culture media at 1×10^5 cells well and allowed to attach and grow overnight at 37° C. in humidified 5% CO2. The following day, the media is replaced with viral supernatant to which 10 ug/ml of Polybrene® (Santa Cruz Biotech, catalog #sc-134220) is added. Viral supernatant is replaced 24 hours later with complete DMEM media. Transduced cells are selected in complete DMEM cell culture media containing 1 microgram/mL of puromycin (Life Technologies, catalog #A1113803).
# HEK293 cells containing empty pCLPCx vector (HEK293 empty), HEK293 cells stably over-expression WFS1 (HEK293 WFS1), HepG2, and HepG2 cells where WFS1 was depleted via CRISPR/Cas9 (HepG2 WFS1 KO) cells were plated into 96-well black plates (Corning, product #3904) in 100 microliters of complete DMEM cell culture media [DMEM (Life Technologies, product #11960-051) media supplemented with 10% FBS (Hyclone, catalog #SH30071.03), antimycotic/antibiotic (Life Technologies, product #15240-062), and Glutamax (Life Technologies, product #35050-061)] at 1,000 (HEK293) or 5,000 (HepG2) cells per well. Cells were allowed to attach and grow overnight, after which compounds are added at various concentrations. Cell viability was assessed 96 hrs after compound addition with CellTiter-Glo reagent (Promega, catalog #G7570) according to manufacturer's protocol and measurement on a Pherastar luminescence plate reader (BMG Labtech).
# The IC50s for the viability of both the Hek293 empty vector and WFS1 over-expressing cells are summarized in Table 47: A<0.06 μM; 0.06 μM≤B<0.6 μM; 0.6 μM≤C<3.0 μM; D≥3.0 μM.
# [2] = Homo sapiens, HEK293, Hek293 WFS1 over-expressing cells
"EC50 (Colo-205 cells; Homo sapiens, COLO 205, 0.6 h) [nM]",EC50 (Colo-205 cells) [nM],Compound,"IC50 [1, 2] [nM]",IC50 ([1]; Hek293 WFS1 over-expressing cells) [nM]
600 to 2000,,"Cc1nc(N[C@H]2CC[C@H](Oc3ccc(C(F)(F)F)nc3)C2)nc2c1NC(=O)[C@H](C)N2C (single isomer, unassigned) [Compound 376]",60 to 600,
≥ 10000,,"Cc1nc(N[C@H]2C[C@H](Oc3cc(F)c(F)c(F)c3)C2)nc2c1NC(=O)[C@H](C)N2C [Compound 246, (7S)-4,7,8-trimethyl-2-((trans-3-(3,4,5-trifluorophenoxy)cyclobutyl)amino)-7,8-dihydropteridin-6(5H)-one]",< 60,
< 600,,"Cc1nc(N[C@H]2C[C@H](Oc3ccc(C(F)(F)F)nc3)C2)nc2c1NC(=O)[C@H](C)N2C [Compound 324, (7S)-4,7,8-trimethyl-2-((trans-3-((6-(trifluoromethyl)pyridin-3-yl)oxy)cyclobutyl)amino)-7,8-dihydropteridin-6(5H)-one]",< 60,
,< 600,"Cc1nc(N[C@H]2CC[C@H](Oc3ccc(C(F)(F)F)nc3)C2)nc2c1NC(=O)[C@H](C)N2C (single isomer, unassigned) [Compound 377]",,< 60
600 to 2000,,"Cc1nc(N[C@H]2C[C@H](Sc3cc(F)c(F)c(F)c3)C2)nc2c1NC(=O)[C@H](C)N2C [Compound 329, (7S)-4,7,8-trimethyl-2-((trans-3-((3,4,5-trifluorophenyl)thio)-cyclobutyl)amino)-7,8-dihydropteridin-6(5H)-one]",< 60,
600 to 2000,,"Cc1nc(NCc2cnn([C@H]3CCN(C4CCC(F)(F)CC4)C3)c2)nc2c1NC(=O)[C@H](C)N2C [Compound 142, (7S)-2-(((1-((S)-1-(4,4-difluorocyclohexyl)pyrrolidin-3-yl)-1H-pyrazol-4-yl)methyl)amino)-4,7,8-trimethyl-7,8-dihydropteridin-6(5H)-one]",60 to 600,
< 600,,"Cc1nc(NCc2cnn([C@@H]3C[C@@H]3c3ccc(F)cc3)c2)nc2c1NC(=O)[C@H](C)N2C [Compound 154, (7S)-2-(((1-((1R,2R)-2-(4-fluorophenyl)cyclopropyl)-1H-pyrazol-4-yl)methyl)amino)-4,7,8-trimethyl-7,8-dihydropteridin-6(5H)-one]",< 60,
< 600,,"Cc1nc(NCc2cnn(Cc3cc(F)c(F)c(F)c3)c2)nc2c1NC(=O)[C@H](C)N2C [Compound 122, (7S)-4,7,8-trimethyl-2-(((1-(3,4,5-trifluorobenzyl)-1H-pyrazol-4-yl)methyl)amino)-7,8-dihydropteridin-6(5H)-one]",< 60,
600 to 2000,,"Cc1nc(NCc2cnn(Cc3cc(C(F)(F)F)nn3C)c2)nc2c1NC(=O)[C@H](C(C)C)N2C [Compound 397, (7S)-7-Isopropyl-4,8-dimethyl-2-(((1-((1-methyl-3-(trifluoromethyl)-1H-pyrazol-5-yl)methyl)-1H-pyrazol-4-yl)methyl)amino)-7,8-dihydropteridin-6(5H)-one]",< 60,
600 to 2000,,"Cc1nc(NCc2cnn(Cc3cc(C(F)(F)F)nn3C)c2)nc2c1NC(=O)[C@H](C)N2C [Compound 160, (7S)-4,7,8-trimethyl-2-(((1-((1-methyl-3-(trifluoromethyl)-1H-pyrazol-5-yl)methyl)-1H-pyrazol-4-yl)methyl)amino)-7,8-dihydropteridin-6(5H)-one]",< 60,
600 to 2000,,"Cc1cc(F)ncc1Cn1cc(CNc2nc(C)c3c(n2)N(C)[C@@H](C)C(=O)N3)cn1 [Compound 94, (7S)-2-(((1-((6-fluoro-4-methylpyridin-3-yl)methyl)-1H-pyrazol-4-yl)methyl)amino)-4,7,8-trimethyl-7,8-dihydropteridin-6(5H)-one]",< 60,
2000 to 10000,,"Cc1nc(NCc2ccc(-n3cc(C(F)(F)F)cn3)nc2)nc2c1NC(=O)[C@H](C)N2C [Compound 143, (S)-4,7,8-trimethyl-2-(((6-(4-(trifluoromethyl)-1H-pyrazol-1-yl)pyridin-3-yl)methyl)amino)-7,8-dihydropteridin-6(5H)-one]",60 to 600,
600 to 2000,,"Cc1nc(C(F)(F)F)ccc1Cn1cc(CNc2nc(C)c3c(n2)N(C)[C@@H](C)C(=O)N3)cn1 [Compound 188, (S)-4,7,8-trimethyl-2-(((1-((2-methyl-6-(trifluoromethyl)pyridin-3-yl)methyl)-1H-pyrazol-4-yl)methyl)amino)-7,8-dihydropteridin-6(5H)-one]",< 60,
600 to 2000,,"Cc1nc(NCc2cnn(Cc3cccc(C(C)C)c3)c2)nc2c1NC(=O)[C@H](C)N2C [Compound 80, (7S)-2-(((1-(3-isopropylbenzyl)-1H-pyrazol-4-yl)methyl)amino)-4,7,8-trimethyl-7,8-dihydropteridin-6(5H)-one]",< 60,
600 to 2000,,"CCN1c2nc(NCc3cnn(Cc4ccc(C(F)(F)F)nc4)c3)nc(C)c2NC(=O)[C@@H]1C [Compound 395, (7S)-8-Ethyl-4,7-dimethyl-2-(((1-((6-(trifluoromethyl)pyridin-3-yl)methyl)-1H-pyrazol-4-yl)methyl)amino)-7,8-dihydropteridin-6(5H)-one]",< 60,
< 600,,"COc1c(F)cc(Cn2cc(CNc3nc(C)c4c(n3)N(C)[C@@H](C)C(=O)N4)cn2)cc1F [Compound 46, (7S)-2-(((1-(3,5-difluoro-4-methoxybenzyl)-1H-pyrazol-4-yl)methyl)amino)-4,7,8-trimethyl-7,8-dihydropteridin-6(5H)-one]",< 60,
600 to 2000,,"Cc1nc(N[C@H]2C[C@H](Oc3ccc(F)cc3)C2)nc2c1N(C)C(=O)[C@H](C)N2C [Compound 250, (7S)-2-((trans-3-(4-fluorophenoxy)cyclobutyl)amino)-4,5,7,8-tetramethyl-7,8-dihydropteridin-6(5H)-one]",60 to 600,
600 to 2000,,"Cc1nc(N[C@H]2C[C@@H](Sc3cc(F)c(F)c(F)c3)C2)nc2c1NC(=O)[C@H](C)N2C [Compound 332, (7S)-4,7,8-trimethyl-2-((cis-3-((3,4,5-trifluorophenyl)thio)cyclobutyl)amino)-7,8-dihydropteridin-6(5H)-one]",< 60,
< 600,,"COc1cc(F)ccc1Cn1cc(CNc2nc(C)c3c(n2)N(C)[C@@H](C)C(=O)N3)cn1 [Compound 83, (7S)-2-(((1-(4-fluoro-2-methoxybenzyl)-1H-pyrazol-4-yl)methyl)amino)-4,7,8-trimethyl-7,8-dihydropteridin-6(5H)-one]",< 60,
600 to 2000,,"Cc1nc(NCc2cnn(Cc3ccc(C(F)(F)F)nc3)c2)nc2c1NC(=O)[C@H](C1CC1)N2C [Compound 386, (7S)-7-Cyclopropyl-4,8-dimethyl-2-(((1-((6-(trifluoromethyl)pyridin-3-yl)methyl)-1H-pyrazol-4-yl)methyl)amino)-7,8-dihydropteridin-6(5H)-one]",< 60,
600 to 2000,,"CC[C@H]1C(=O)Nc2c(C)nc(NCc3cnn(Cc4ccc(C(F)(F)F)nc4)c3)nc2N1C [Compound 186, (7S)-7-ethyl-4,8-dimethyl-2-(((1-((6-(trifluoromethyl)pyridin-3-yl)methyl)-1H-pyrazol-4-yl)methyl)amino)-7,8-dihydropteridin-6(5H)-one]",< 60,
